This note sets out measurements from patent US11999732B2, “P2X3 receptor antagonists” (RECORDATI INDUSTRIA CHIMICA E FARMACEUTICA SPA, priority 2018, dated 2024).

The target of this assay is T1, human P2X3 receptor (Homo sapiens, UniProt P56373).
T1 construct: expressed in transfected cells; host or cells: CHO-K1
T1 sequence (P56373 1-397): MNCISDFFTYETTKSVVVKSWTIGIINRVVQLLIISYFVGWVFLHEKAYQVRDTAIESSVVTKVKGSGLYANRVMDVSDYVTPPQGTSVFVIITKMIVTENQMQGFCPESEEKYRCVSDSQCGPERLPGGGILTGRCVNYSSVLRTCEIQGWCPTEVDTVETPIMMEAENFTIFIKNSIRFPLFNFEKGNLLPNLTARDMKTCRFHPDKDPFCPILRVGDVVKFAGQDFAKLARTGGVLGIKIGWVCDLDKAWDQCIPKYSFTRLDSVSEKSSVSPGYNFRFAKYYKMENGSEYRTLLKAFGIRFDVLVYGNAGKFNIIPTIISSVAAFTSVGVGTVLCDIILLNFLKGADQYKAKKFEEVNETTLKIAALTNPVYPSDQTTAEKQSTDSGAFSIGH
In words: Calcium luminescence (photoprotein) assay in CHO-K1 cells co-expressing human P2X3 receptor, α,β-Met-ATP stimulation, FLEXSTATION readout. It counts as cell-based. The conditions noted are these: Table 6; human P2X3 receptor antagonist activity, CHO-K1 cells, α,β-Met-ATP; read-out: h-P2X3 IC50. How it is done: The assay for the human purinergic P2X3 receptor has been adapted to the internal screening instrumentation using the FLEXSTATION as reader and a photoprotein as luminescent readout. The assay consists of CHO-K1 cells recombinantly co-expressing the human P2rx3 receptor and a Ca^2+ sensitive photoprotein. Cells are maintained in DMEM F-12 (1:1) mixture (LONZA cat. no BE04-687F/U1) supplemented with 9 mL of 100 mM Sodium Pyruvate (LONZA cat. no BE13-115E), 29 mL of 7.5% Sodium Bicarbonate (LONZA cat. no: BE17-613E), 5.5 mL of 1 M Hepes (LONZA cat. no BE17-737E), 5 mL of 100× Penicillin/Streptomycin (LONZA cat. no DE17-602E) and 50 mL of Fetal Bovine Serum (Sigma cat. no F7524), 1 mg/mL G418 (Sigma cat. no G8168) and 5 µg/ml puromycin (Sigma cat. no P9620). Standard propagation conditions consist of seeding in a P75 flask twice a week, recovering about 20×10^6 cells, corresponding to about 80% confluency. Cells were seeded into black-walled clear bottom 96 well plates at a density of 40000 cells/well in a Tyrode's buffer (Standard Tyrode's buffer: in house solution, 130 mM NaCl, 5 mM KCl, 2 mM CaCl2, 5 mM NaHCO3, 1 mM MgCl2, 20 mM HEPES, pH 7.4). After 24 h the culture medium was replaced with 200 μL/well of coelenterazine in Tyrode's buffer (Coelenterazine: from BIOSYNTH (cat. no C-7001). 10 mM stock solution was prepared in DMSO and glutathione and stored at −20° C.). The plates were incubated for 4 hours at 37° C., and injected with 10 μL/well of test compounds at 25× concentration in Tyrode's buffer. After 4 minutes a second injection of 50 μL/well of 5× α,β-Met-ATP in Tyrode's buffer (α,β-Met-ATP: from Tocris (cat. no 3209), was dissolved at 100 mM in water and stored in aliquots at −20° C.) was performed and the signal of the emitted luminescence was recorded by FLEXSTATION III (Molecular Devices).
The inhibition curves of the tested compounds at cloned P2X3 receptor were determined by nonlinear regression analysis using software Prism 4.0 (Graphpad, San Diego, Calif.). The IC50 values and pseudo-Hill slope coefficients were estimated by the program.

For the compound `COc1ccc(CN2C(=O)N3C(=NCC3C(C)C)c3ncc(N4CCOCC4)cc32)cc1` (centres unmarked) [Example 1, 6-(4-methoxybenzyl)-8-(morpholin-4-yl)-3-(propan-2-yl)-2,6-dihydroimidazo[1,2-c]pyrido[2,3-e]pyrimidin-5(3H)-one], the IC50 (commonly the concentration at which inhibition is half-maximal) amounted to 5220 nM. The figure for `COc1cc(CN2C(=O)N3C(=NCC3C)c3ncc(N4CCOCC4)cc32)cc(OC)c1` (centres unmarked) [Example 2] is 1190 nM; for `COc1cc(CN2C(=O)N3CC(C)N=C3c3ncc(N4CCOCC4)cc32)cc(OC)c1` (centres unmarked) [Example 3] it is 1160 nM.

On to `COc1cc(CN2C(=O)N3CC(C(C)C)N=C3c3ncc(N4CCOCC4)cc32)cc(OC)c1` (centres unmarked) [Example 4, 6-(3,5-dimethoxybenzyl)-8-(morpholin-4-yl)-2-(propan-2-yl)-2,6-dihydroimidazo[1,2-c]pyrido[2,3-e]pyrimidin-5(3H)-one], for which the concentration for half-maximal inhibition (IC50) amounted to 178 nM. The figure for `CCC1CN2C(=O)N(Cc3cc(OC)cc(OC)c3)c3cc(N4CCOCC4)cnc3C2=N1` (centres unmarked) [Example 5, 6-(3,5-dimethoxybenzyl)-2-ethyl-8-(morpholin-4-yl)-2,6-dihydroimidazo[1,2-c]pyrido[2,3-e]pyrimidin-5(3H)-one] is 278 nM.

As for `CCC1CN=C2c3ncc(N4CCOCC4)cc3N(Cc3cc(OC)cc(OC)c3)C(=O)N21` (centres unmarked) [Example 6, 6-(3,5-dimethoxybenzyl)-3-ethyl-8-(morpholin-4-yl)-2,6-dihydroimidazo[1,2-c]pyrido[2,3-e]pyrimidin-5(3H)-one], the 50% inhibitory concentration (IC50) was 504 nM.

Regarding `COc1cc(CN2C(=O)N3CCN=C3c3ncc(N4CCOCC4)cc32)cc(OC)c1` [Example 7, 6-(3,5-dimethoxybenzyl)-8-(morpholin-4-yl)-2,6-dihydroimidazo[1,2-c]pyrido[2,3-e]pyrimidin-5(3H)-one], the IC50 worked out at 1640 nM. The figure for `COc1cc(CN2C(=O)N3C(=NC(C)C3C)c3ncc(N4CCOCC4)cc32)cc(OC)c1` (centres unmarked) [Example 8, 6-(3,5-dimethoxybenzyl)-2,3-dimethyl-8-(morpholin-4-y1)-2,6-dihydroimidazo[1,2-c]pyrido[2,3-e]pyrimidin-5(3H)-one] is 636 nM; for `O=C1N2CC(C3CC3)N=C2c2ncc(N3CCOCC3)cc2N1Cc1ccc(Cl)cc1` (centres unmarked) [Example 10, 6-(4-chlorobenzyl)-2-cyclopropyl-8-(morpholin-4-yl)-2,6-dihydroimidazo[1,2-c]pyrido[2,3-e]pyrimidin-5(3H)-one] it is 241 nM. The figure for `COCC1CN2C(=O)N(Cc3ccc(Cl)cc3)c3cc(N4CCOCC4)cnc3C2=N1` (centres unmarked) [Example 11, 6-(4-chlorobenzyl)-2-(methoxymethyl)-8-(morpholin-4-y1)-2,6-dihydroimidazo[1,2-c]pyrido[2,3-e]pyrimidin-5(3H)-one] is 358 nM. The figure for `O=C1N(Cc2ccc(Cl)cc2)c2cc(N3CCOCC3)cnc2C2=NCC(C3CC3)N12` (centres unmarked) [Example 12, 6-(4-chlorobenzyl)-3-cyclopropyl-8-(morpholin-4-yl)-2,6-dihydroimidazo[1,2-c]pyrido[2,3-e]pyrimidin-5(3H)-one] is 428 nM; for `COCC1CN=C2c3ncc(N4CCOCC4)cc3N(Cc3ccc(Cl)cc3)C(=O)N21` (centres unmarked) [Example 13, 6-(4-chlorobenzyl)-3-(methoxymethyl)-8-(morpholin-4-y1)-2,6-dihydroimidazo[1,2-c]pyrido[2,3-e]pyrimidin-5(3H)-one] it is 1260 nM; for `CC(C)C1CN2C(=O)N(Cc3ccc(Cl)cc3)c3cc(N4CC5(COC5)C4)cnc3C2=N1` (centres unmarked) [Example 15, 6-(4-chlorobenzyl)-8-(2-oxa-6-azaspiro[3.3]heptan-6-yl)-2-(propan-2-y1)-2,6-dihydroimidazo[1,2-c]pyrido[2,3-e]pyrimidin-5(3H)-one] it is 1430 nM. In the case of `COC1CCN(c2cnc3c(c2)N(Cc2ccc(Cl)cc2)C(=O)N2CC(C(C)C)N=C32)CC1` (centres unmarked) [Example 16, 6-(4-chlorobenzyl)-8-(4-methoxypiperidin-1-yl)-2-(propan-2-yl)-2,6-dihydroimidazo[1,2-c]pyrido[2,3-e]pyrimidin-5(3H)-one], the IC50 was found to be 2230 nM. Take `COCC1CN(c2cnc3c(c2)N(Cc2ccc(Cl)cc2)C(=O)N2CC(C(C)C)N=C32)C1` (centres unmarked) [Example 17, 6-(4-chlorobenzyl)-8-[3-(methoxymethyl)azetidin-1-yl]-2-(propan-2-y1)-2,6-dihydroimidazo[1,2-c]pyrido[2,3-e]pyrimidin-5(3H)-one]: the IC50 came to 690 nM. For `COc1ccc(CN2C(=O)N3CC(C(C)C)N=C3c3ncc(N4CCOCC4)cc32)cc1` (centres unmarked) [Example 18, 6-(4-methoxybenzyl)-8-(morpholin-4-yl)-2-(propan-2-yl)-2,6-dihydroimidazo[1,2-c]pyrido[2,3-e]pyrimidin-5(3H)-one] the value was 301 nM; for `COc1ccc(CN2C(=O)N3CC(C(C)C)N=C3c3ncc(N4CC5(COC5)C4)cc32)cc1` (centres unmarked) [Example 19, 6-(4-methoxybenzyl)-8-(2-oxa-6-azaspiro[3.3]heptan-6-yl)-2-(propan-2-yl)-2,6-dihydroimidazo[1,2-c]pyrido[2,3-e]pyrimidin-5(3H)-one], 5510 nM; for `COc1ccc(CN2C(=O)N3CC(C(C)C)N=C3c3ncc(N4CCC(CO)CC4)cc32)cc1` (centres unmarked) [Example 20], 1140 nM. Turning to `COc1ccc(CN2C(=O)N3CC(C(C)C)N=C3c3ncc(N4CCC(N(C)C)CC4)cc32)cc1` (centres unmarked) [Example 21, 8-[4-(dimethylamino)piperidin-1-yl]-6-(4-methoxybenzyl)-2-(propan-2-yl)-2,6-dihydroimidazo[1,2-c]pyrido[2,3-e]pyrimidin-5(3H)-one], the concentration for half-maximal inhibition (IC50) is 7190 nM. `COc1cc(CN2C(=O)N3CC(CC(C)C)N=C3c3ncc(N4CCOCC4)cc32)cc(OC)c1` (centres unmarked) [Example 22, 6-(3,5-dimethoxybenzyl)-2-(2-methylpropyl)-8-(morpholin-4-yl)-2,6-dihydroimidazo[1,2-c]pyrido[2,3-e]pyrimidin-5(3H)-one]: the half-maximal inhibitory concentration (IC50) was 143 nM. For `COc1ccc(CN2C(=O)N3CC(C4CCCCC4)N=C3c3ncc(N4CCOCC4)cc32)cc1` (centres unmarked) [Example 23, 2-cyclohexyl-6-(4-methoxybenzyl)-8-(morpholin-4-yl)-2,6-dihydroimidazo[1,2-c]pyrido[2,3-e]pyrimidin-5(3H)-one] the value was 506 nM; for `COc1ccc(CN2C(=O)N3C(=NCC3C3CCCCC3)c3ncc(N4CCOCC4)cc32)cc1` (centres unmarked) [Example 24, 3-cyclohexyl-6-(4-methoxybenzyl)-8-(morpholin-4-yl)-2,6-dihydroimidazo[1,2-c]pyrido[2,3-e]pyrimidin-5(3H)-one], 515 nM. For the compound `O=C1N2CC(C3CCCCC3)N=C2c2ncc(N3CCOCC3)cc2N1Cc1ccc(Cl)cc1` (centres unmarked) [Example 25, 6-(4-chlorobenzyl)-2-cyclohexyl-8-(morpholin-4-yl)-2,6-dihydroimidazo[1,2-c]pyrido[2,3-e]pyrimidin-5(3H)-one], the concentration for half-maximal inhibition (IC50) came to 389 nM. The figure for `O=C1N(Cc2ccc(Cl)cc2)c2cc(N3CCOCC3)cnc2C2=NCC(C3CCCCC3)N12` (centres unmarked) [Example 26, 6-(4-chlorobenzyl)-3-cyclohexyl-8-(morpholin-4-yl)-2,6-dihydroimidazo[1,2-c]pyrido[2,3-e]pyrimidin-5(3H)-one] is 469 nM; for `COc1ccc(CN2C(=O)N3CC(c4ccccc4)N=C3c3ncc(N4CCOCC4)cc32)cc1` (centres unmarked) [Example 28, 6-(4-methoxybenzyl)-8-(morpholin-4-yl)-2-phenyl-2,6-dihydroimidazo[1,2-c]pyrido[2,3-e]pyrimidin-5(3H)-one] it is 375 nM.

In the case of `COc1ccc(CN2C(=O)N3C(=NCC3c3ccccc3)c3ncc(N4CCOCC4)cc32)cc1` (centres unmarked) [Example 29, 6-(4-methoxybenzyl)-8-(morpholin-4-yl)-3-phenyl-2,6-dihydroimidazo[1,2-c]pyrido[2,3-e]pyrimidin-5(3H)-one], the half-inhibitory concentration (IC50) amounted to 368 nM.
